Data as given in patent US8017168B2, “High-potency sweetener composition with rubisco protein, rubiscolin, rubiscolin derivatives, ace inhibitory peptides, and combinations thereof, and compositions sweetened therewith” (The Coca-Cola Company, priority 2006, dated 2011).
Ends that are not written are not given here.

How the values were obtained:
[1] = Sensory evaluation of sweetness linger by expert panel, Example Set H (phosphoric acid solution pH 2.4-2.5); format: in vivo; set-up: key: 0: no sweetness linger; 1: very slight sweetness linger; 2: slight sweetness linger; 3: moderate sweetness linger; 4: moderately high sweetness linger; 5: high sweetness linger; conditions: scale 0-5; 500 ppm REBA or 10 g sugar in 100 ml, carbon-treated water, phosphoric acid pH 2.4-2.5
[2] = Sensory evaluation of sweetness linger by expert panel, Example Set G (citric acid/potassium citrate lemon-lime base); format: in vivo; set-up: key: 0: no sweetness linger; 1: very slight sweetness linger; 2: slight sweetness linger; 3: moderate sweetness linger; 4: moderately high sweetness linger; 5: high sweetness linger; conditions: scale 0-5; for sweetness linger rating of control samples: 400 ppm REBA in citric acid/potassium citrate composition, 8 g sugar in 100 ml citrate buffer; for Sweetness Linger rating (defined anchors of the protocol): sucrose, 500 ppm REBA control sample
Procedure: Sensory evaluation of the samples prepared in Example Set G was carried out under the following protocol, similar to that described hereinabove. In this test protocol, none of the samples were swallowed. All samples were expectorated and the mouth was rinsed with water after the tasting. Immediately upon sensing maximal sweetness, the sample was expectorated, the mouth was rinsed with water and the rate of sweetness decay (“Sweetness Linger”) was measured, where attention was focused on the sweetness 3-4 min after the water rinse. After sample tasting was complete, a salty oyster cracker was chewed followed by a water rinse, and at least 5 minutes followed before tasting the next sample. The sweetness linger was rated by a panel of experts in the sensory evaluation of foods and beverages using the following scale: 0=no sweetness linger, 1=very slight sweetness linger, 2=slight sweetness linger, 3=moderate sweetness linger, 4=moderately high sweetness linger, 5=high sweetness linger.
The “Sweetness Linger” rating for sucrose observed by this protocol is defined as 0. The Sweetness Linger of a 500 ppm of REBA control sample is defined as 5. Experimental samples were tasted by the same protocol, always allowing sufficient time between samples to ensure re-equilibration of the sensory system. Re-tasting of control samples during the course of the experiment was allowed and encouraged.
The comparison taste test was performed between two controls and addition of sweet taste improving additive on the onset and/or sweetness linger.
The effects of formulation change on the sweetness linger of 400 ppm REBA (equivalent to 8 g sucrose) in a citric acid/potassium citrate composition equivalent to that in a diet lemon-lime beverage were evaluated. The sweetness linger rating of this solution was determined to be 5.
8 g of sugar was dissolved in 100 ml of citrate buffer. The sweetness linger rating of this control sample was determined to be 0.

[3] = Rate of dissolution of rebaudioside A polymorph and amorphous forms in H2O at 25° C.; format: physicochemical
[4] = format: physicochemical
Procedure: A solution of rebaudioside A (>97% pure by HPLC) was prepared in double distilled water (12.5 gm in 50 mL, 25% concentration) by stirring the mixture at 40° C. for 5 minutes. An amorphous form of rebaudioside A was formed by immediately using the clear solution for spray drying with the Lab-Plant spray drier SD-04 instrument (Lab-Plant Ltd., West Yorkshire, U.K.). The solution was fed through the feed pump into the nozzle atomizer which atomized it into a spray of droplets with the help of a constant flow of nitrogen/air. […] This dry powder (11-12 g, H2O 6.74%) was discharged continuously from the drying chamber and was collected in a bottle.

mice = conditions: oral administration, 100 mg per kg; cited from earlier work

| Compound | Rate of dissolution in H2O at 25° C. ([3]; H2O, 25° C.) | Rate of dissolution in H2O at 25° C. ([3]; grade in words) | further results |
| --- | --- | --- | --- |
| rebaudioside A | – | – | sweetness linger rating of control samples [1]: 5; sweetness linger rating of control samples [2]: 5; Sweetness Linger rating (defined anchors of the protocol) [2]: 5 |
| OC[C@H]1O[C@@](CO)(O[C@H]2O[C@H](CO)[C@@H](O)[C@H](O)[C@H]2O)[C@@H](O)[C@@H]1O [sucrose] | – | – | sweetness linger rating of control samples [1]: 0; sweetness linger rating of control samples [2]: 0; Sweetness Linger rating (defined anchors of the protocol) [2]: 0 |
| rebaudioside A [Form 4] | (>35.0%/5 %/5 minutes | High | solubility in water at room temperature [4]: > 35.0% |
| rebaudioside A [Form 3] | (>30%/5 %/5 minutes | High | – |
| YPLDLF [rubiscolin-6] | – | – | memory consolidation (mice): enhanced memory consolidation |

The next lines start with results.

| Rate of dissolution in H2O at 25° C. ([3]; H2O, 25° C.) | Rate of dissolution in H2O at 25° C. ([3]; grade in words) | Compound | further results |
| --- | --- | --- | --- |
| (<30%/5 %/5 minutes | Intermediate | rebaudioside A [Form 2] | – |
| (<0.2%/60 %/60 minutes | Very low | rebaudioside A [Form 1] | – |
